Experimental data: ChEMBL document CHEMBL5729174, “Substituted benzofuran, benzopyrrole, benzothiophene, and structurally related complement inhibitors” (2022)

molecular target: Complement factor D (Homo sapiens, UniProt P00746); experiment: Factor D Esterolytic Assay: An established esterolytic assay for the measurement of Factor D activity and inhibition of Factor D activity was used (Kam, C. M.; McRae, B. J.; Harper, J. W.; Niemann, M. A.; Volanakis, J. E.; Powers, J. C. Human complement proteins D, C2, and B Active site mapping with peptide thioester substrates. J Biol. Chem. 1987, 262, 3444-3451). For this assay Z-Lys-SBzl, 1.29 mM (Kim, S.; Narayana, S. V. L; Volanakis, J. E. Mutational analysis of the substrate binding site of human complement Factor D. Biochemistry. 1994, 33, 14393-14399.) was used as the substrate for Factor D ([…]). Hydrolysis of this compound by Factor D liberated a free sulfhydryl group which is then reacted with 5,5′-dithiobis(2nitrobenzoic acid) producing an intense yellow color (Habeeb, A. F. S. A. Reaction of protein sulfhydryl groups with Ellman's Reagent. Methods in Enzymol. 1976, 25, 457-464). The assays were performed in 96 well microtiter plates and rates of hydrolysis were monitored at 405 nm on a Biotek Synergy H1 plate reader. Hydrolysis rates were reported as change in mOD/min. The assay was conducted in 100 mM HEPES, 500 mM NaCl, pH 7.5 containing 10% DMSO in a final volume of 50 μL per well.
Sequence (P00746 whole entry): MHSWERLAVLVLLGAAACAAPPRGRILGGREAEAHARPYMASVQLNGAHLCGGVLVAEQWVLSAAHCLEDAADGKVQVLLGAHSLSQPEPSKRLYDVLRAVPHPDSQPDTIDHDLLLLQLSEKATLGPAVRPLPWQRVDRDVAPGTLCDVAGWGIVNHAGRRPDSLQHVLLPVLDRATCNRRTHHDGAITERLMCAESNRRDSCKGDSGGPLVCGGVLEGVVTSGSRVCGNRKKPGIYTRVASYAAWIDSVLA

IC50 [nM]	Structure (SMILES)
< 1000	CS(=O)(=O)n1ccc2c(-c3ccnc(CN)c3F)cc(COc3ccccc3CC(=O)O)cc21
< 1000	NCc1cccc(-c2cc(COc3ccccc3CC(=O)O)cc3cc[nH]c23)c1
< 1000	NCc1nccc(-c2cc(COc3ccccc3CC(=O)O)cc3c2ccn3S(=O)(=O)C2CC2)c1F
< 1000	NCc1cccc(-c2cc(COc3ccc(F)cc3CC(=O)O)cc3ccoc23)c1F
